Patent US12281138B2, “5′-cap-trinucleotide- or higher oligonucleotide compounds and their use in stabilizing RNA, expressing proteins in therapy” (BioNTech RNA Pharmaceuticals GmbH, priority 2018, dated 2025)

Legend:
[1] = system: human immature dendritic cells (hiDCs); experiment: Luciferase reporter mRNA translation in human immature dendritic cells; assay type: cell-based; settings: co-transcriptionally capped Luciferase mRNA, 700 ng per well, liposome formulated, recorded over 72 h
Experimental: As a functional assay of cap analog incorporation, and as a test of translatability of the resulting cap structure, differently capped mRNA encoding a Luciferase reporter was transfected into human immature dendritic cells (hiDCs). For that, 700 ng capped RNA per well were formulated with liposomes as described in Kranz et al., Nature 534, 396-401 (2016), and added to a 96-well containing 5E04 hiDCs. Subsequently, reporter activity was recorded over 72 h.

[2] = system: Balb/c mice; experiment: Luciferase mRNA expression in vivo, bioluminescence imaging after intravenous application; settings: 10 μg RNA per mouse, i.v.

m2^7,2′-OGppSpm^2′-OGpG [Compound 1 (D1)]
translation in hiDCs (luciferase reporter activity) relative to mRNA capped with the corresponding D1 or D2 diastereomer of beta-S-ARCA [1]: comparable levels

m2^7,2′-OGppSpm^2′-OGpG [Compound 1]
in vivo luciferase protein levels compared to all cap0 RNAs ([2]; all time points): always higher levels | in vivo luciferase protein levels compared to enzymatically capped cap1 mRNA ([2]; at the other time points): only slightly lower levels
